Patent publication US12295970B2, “Imidazoquinoline compounds and prodrugs thereof” (UNIVERSITY OF KANSAS, priority 2019, dated 2025)

Target: T1, human TLR7 (hTLR7) (Homo sapiens, UniProt Q9NYK1)
T1 construct: host or cells: HEK-293 (HEK-Blue hTLR7)
T1 sequence (Q9NYK1 27-1049): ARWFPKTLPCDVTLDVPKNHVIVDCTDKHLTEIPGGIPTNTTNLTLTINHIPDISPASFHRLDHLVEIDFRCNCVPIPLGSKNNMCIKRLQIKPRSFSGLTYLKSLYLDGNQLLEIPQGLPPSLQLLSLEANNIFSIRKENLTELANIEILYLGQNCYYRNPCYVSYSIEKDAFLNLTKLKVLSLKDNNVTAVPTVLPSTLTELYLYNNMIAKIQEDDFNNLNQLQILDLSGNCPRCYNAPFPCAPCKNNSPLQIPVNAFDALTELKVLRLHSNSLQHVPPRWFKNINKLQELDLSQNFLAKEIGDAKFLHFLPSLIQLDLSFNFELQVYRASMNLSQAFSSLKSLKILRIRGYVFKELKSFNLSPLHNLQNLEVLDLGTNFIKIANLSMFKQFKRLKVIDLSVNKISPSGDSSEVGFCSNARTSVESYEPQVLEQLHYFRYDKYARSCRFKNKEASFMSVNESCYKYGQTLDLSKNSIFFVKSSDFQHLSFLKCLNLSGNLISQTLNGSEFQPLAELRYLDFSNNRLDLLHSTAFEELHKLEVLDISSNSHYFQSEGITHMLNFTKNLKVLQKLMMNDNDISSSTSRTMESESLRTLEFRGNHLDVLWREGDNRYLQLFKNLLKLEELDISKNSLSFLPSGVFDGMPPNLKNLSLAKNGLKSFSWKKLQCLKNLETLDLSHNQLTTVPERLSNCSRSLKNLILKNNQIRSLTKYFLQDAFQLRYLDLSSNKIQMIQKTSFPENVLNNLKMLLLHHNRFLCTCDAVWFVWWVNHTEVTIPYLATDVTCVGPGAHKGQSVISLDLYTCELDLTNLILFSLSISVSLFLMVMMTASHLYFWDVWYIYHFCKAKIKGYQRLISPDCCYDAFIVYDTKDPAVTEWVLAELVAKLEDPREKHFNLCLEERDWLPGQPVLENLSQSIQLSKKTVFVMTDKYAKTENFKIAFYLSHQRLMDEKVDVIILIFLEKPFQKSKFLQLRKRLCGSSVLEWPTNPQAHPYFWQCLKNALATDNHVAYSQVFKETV
Assay: In vitro TLR7 activity assay (HEK-Blue hTLR7, QUANTI-Blue, Example 3)
Format: cell-based
Details: 16 h incubation; Null 1-k subtracted
Experimental: TLR agonist activity was measured in a dose-response study using reporter cell lines expressing the human TLR7 (hTLR7). […] The hTLR7 activity of R848-Toco, the formulation and its components were assessed using HEK-293 cells co-transfected with the hTLR7 gene and an inducible SEAP reporter gene along with the corresponding null control line (HEK-Blue™ hTLR7 and Null-1k cells, Invivogen). Cells were maintained in DMEM media with selective antibiotics according to the manufacturer protocol.^26 HEK-Blue™ cells were seeded into 96 well plates at a density of 220,000 cells/mL with 180 μL/well of culture medium. Stock solutions in DMSO were first serially diluted to seven concentrations (DMSO solutions further diluted into H2O). Each well was stimulated with 20 μL of agonists or agonist-free controls (equivalent concentration of HA-Toco, D-α-Tocopherol succinate, PBS or […] DMSO) at the determined final concentrations in 5 replicates. After 16 h of incubation at 37° C. in a 5% CO2 atmosphere, 20 μL of the supernatant from each well was sampled and spiked into 180 μL of QUANTI-Blue™ solution followed by incubation for 1 h at 37° C. Relative hTLR7 activity was then analyzed by UV-Vis at 637 nm using a microplate UV reader (SpectraMAX GeminiXS, Molecular Devices, San Jose, CA, USA). For each compound and concentration, a corresponding sample was applied to the HEK-Blue™ Null-1k cell line. The TLR7 agonist activity was determined after averaging across hTLR7 replications and subtracting the averaged Null response.
Activation levels were calculated as the difference between the average readings of the hTLR7 cell line and the Null 1-k cell line, to account for non-hTLR7 related induction of NF-κB. […] Therefore, this study confirmed that R848-Toco, formulated with HA-Toco as an emulsion, maintained its TLR agonist activity. […]

Structure (SMILES): CCOCc1nc2c(N)nc3ccccc3c2n1CC(C)(C)O [Compound 2, resiquimod, reference compound]
- hTLR7 activation (NF-κB, in words): strong dose-dependent activation
